Results as given in patent publication US20260234165A1, “MACROCYCLIC COMPOUNDS, PREPARATION METHOD THEREFOR, AND USE THEREOF” (GENFLEET THERAPEUTICS (SHANGHAI) INC., priority 2004, published 2026).
Where a name gives a salt, the structure may show the parent alone. Read-outs that look alike come from different tables or passages of the source.

Columns and labels:
Format in all cases: cell-based, human
NCI-H441 cells = test: 3D cell proliferation assay (CellTiter Glo-3D), NCI-H441; details: medium with 2% FBS, read-out: H441 AP IC50
Outline: (§1)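 Luminescent CellTiter-Glo 3D readout after 5-day compound exposure (3.16-fold series, 0.1% DMSO, 2% FBS medium) at 37°C on 800 cells/well plated the day before; IC50 from four-parameter curve of inhibition relative to DMSO and blank wells.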

[1] = tested on: p-ERK in NCI-H441 cells (KRAS G12V mutation); test: Cell p-ERK assay (HTRF) in NCI-H441 cells
Outline: (§2)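 Phospho-ERK inhibition measured by HTRF after a 3 h compound exposure (0.1% DMSO) in overnight-seeded cells; IC50 derived from dose-response fitting.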

[2] = tested on: p-ERK in AsPC-1 cells (KRAS G12D mutation); test: Cell p-ERK assay (HTRF) in AsPC-1 cells
Outline: as §2

[3] = tested on: AsPC-1 cells (KRAS G12D mutation); test: 3D cell proliferation assay (CellTiter Glo-3D), AsPC-1; details: medium with 2% FBS, read-out: AsPC-1 AP IC50
Outline: as §1

[4] = 3D cell proliferation (CellTiter Glo-3D)
[5] = NCI-H441 cells, 3 h compound incubation, HTRF p-ERK T202/Y204, read-out: H441 p-ERK IC50
[6] = AsPC-1 cells, 3 h compound incubation, HTRF p-ERK T202/Y204, read-out: AsPC-1 p-ERK IC50
[7] = Homo sapiens, ASPC1, 3D cell proliferation (CellTiter Glo-3D)
[8] = Homo sapiens, NCI-H441, 3D cell proliferation (CellTiter Glo-3D)
[9] = Homo sapiens, NCI-H441, 3 h, NCI-H441 cells, 3 h compound incubation, HTRF p-ERK T202/Y204, read-out: H441 p-ERK IC50
[10] = Homo sapiens, ASPC1, 3 h, AsPC-1 cells, 3 h compound incubation, HTRF p-ERK T202/Y204, read-out: AsPC-1 p-ERK IC50

| IC50 (NCI-H441 cells; [4]) | IC50 [1, 5] | IC50 [2, 6] | IC50 [3, 4] | IC50 [3, 7] | IC50 (NCI-H441 cells; [8]) | IC50 [1, 9] | IC50 [2, 10] | Compound | IC50 (NCI-H441 cells; Homo sapiens, 3D cell proliferation (CellTiter Glo-3D)) | IC50 ([1]; Homo sapiens, NCI-H441, 3 h, read-out: H441 p-ERK IC50(nM)) | IC50 ([2]; Homo sapiens, ASPC1, 3 h, read-out: AsPC-1 p-ERK IC50(nM)) |
| --- | --- | --- | --- | --- | --- | --- | --- | --- | --- | --- | --- |
| 0.5 nM | 0.48 nM | 0.15 nM | 0.81 nM |  |  |  |  | CCn1c(-c2cc(C#CC3(N4CCCOCC4)CC3)cnc2[C@H](C)OC)c2c3cc(ccc31)-c1csc(n1)C[C@H](NC(=O)[C@H]1[C@H](C)[C@@H]1C)C(=O)N1CCC[C@H](N1)C(=O)OCC(C)(C)C2 (atropisomer, axis not shown; (Ra)) [Compound Z645, (1r,2R,3S)—N-((4S,Z)—(Ra)-1-(5-((1-(1,4-oxazepan-4-yl)cyclopropyl)ethynyl)-2-((S)-1-methoxyethyl)pyridin-3-yl)-1^1-ethyl-10,10-dimethyl-5,7-dioxo-6^1,6^2,6^3,6^4,6^5,6^6-hexahydro-1^1H-8-oxa-2(4,2)-thiazola-1(5,3)-indola-6(1,3)-pyridazinacycloundecaphane-4-yl)-2,3-dimethylcyclopropane-1-carboxamide] |  |  |  |
| 42.6 nM | 37.7 nM | 93 nM | 97.2 nM |  |  |  |  | (1S,2R,3S)—N-((6^3S,4S,Z)—(Ra)-1^2-(5-(2-(4-oxa-7-azaspiro[2,5]octan-7-yl)ethoxy)-2-((S)-1-methoxyethyl)pyridin-3-yl)-11-ethyl-10,10-dimethyl-5,7-dioxo-6^1,6^2,6^3,6^4,6^5,6^6-hexahydro-1^1H-8-oxa-2(4,2)-thiazola-1(5,3)-indola-6(1,3)- pyridazinacycloundecaphane-4-yl)-2-methyl-3-(pyrimidin-4-yl)cyclopropane-1-carboxamide [Compound Z661-1] |  |  |  |
|  |  |  |  | 0.68 nM | 0.3 nM | 0.17 nM | 0.36 nM | CCn1c(-c2cc(C#CCN3CCN(C)CC3)cnc2[C@H](C)OC)c2c3cc(ccc31)-c1csc(n1)C[C@H](NC(=O)[C@H]1[C@H](C)[C@@H]1C)C(=O)N1CCC[C@H](N1)C(=O)OCC(C)(C)C2 (atropisomer, axis not shown; (Ra)) [Compound Z703] |  |  |  |
|  |  |  |  | 6.9 nM | 3.7 nM | 0.91 nM | 3.92 nM | CCn1c(-c2cc(OCCN3CCOC4(CC4)C3)cnc2[C@H](C)OC)c2c3cc(ccc31)-c1csc(n1)C[C@H](NC(=O)[C@H]1[C@H](C)[C@@H]1C)C(=O)N1CCC[C@H](N1)C(=O)OCC1(CC1)C2 (atropisomer, axis not shown; (Ra)) [Compound Z375] |  |  |  |
|  | 1.65 nM | 1.35 nM |  | 3.22 nM | 1.83 nM |  |  | CCn1c(-c2cc(C#CC(=O)N3CCCOCC3)cnc2[C@H](C)OC)c2c3cc(ccc31)-c1csc(n1)C[C@H](NC(=O)[C@H]1[C@H](C)[C@@H]1C)C(=O)N1CCC[C@H](N1)C(=O)OCC(C)(C)C2 (atropisomer, axis not shown; (Ra)) [Compound Z810, (1r,2R,3S)—N-((6^3S,4S,Z)-1^1-ethyl-(Ra)-1-(5-(3-(1,4-oxazepan-4-yl)-3-oxoprop-1-yn-1-yl)-2-((S)-1-methoxyethyl)pyridin-3-yl)-10,10-methyl-5,7-dioxo-6^1,6^2,6^3,6^4,6^5,6^6hexahydro-1^1H-8-oxa-2(4,2)-thiazola-1(5,3)-indola-6(1,3)-pyridazinacycloundecaphane-4-yl)-2,3-dimethylcyclopropane-1-carboxamide] |  |  |  |
|  |  |  |  | 3.52 nM | 1.64 nM | 1.06 nM | 1.69 nM | CCn1c(-c2cc(C#CCN3CCCOCC3)cnc2[C@H](C)OC)c2c3cc(ccc31)-c1csc(n1)C[C@H](NC(=O)C(C)(C)CC)C(=O)N1CCC[C@H](N1)C(=O)OCC(C)(C)C2 (atropisomer, axis not shown; (Ra)) [Compound Z812, N-((6^3S,4S,Z)—(Ra)-1^2-(5-(3-(1,4-oxazepan-4-yl)prop-1-yn-1-yl)-2-((S)-1-methoxyethyl)pyridin-3-yl)-1^1-ethyl-10,10-dimethyl-5,7-dioxo-6^1,6^2,6^3,6^4,6^5,6^6-hexahydro-1^1H-8-oxa-2(4.2)-thiazola-1(5,3)-indola-6(1,3)-pyridazinacycloundecaphane-4-yl)-2.2-dimethylbutanamide] |  |  |  |
|  |  |  |  | 0.96 nM | 0.42 nM | 0.35 nM | 0.73 nM | CCn1c(-c2cc(CCN3CCS(=O)(=O)CC3)cnc2[C@H](C)OC)c2c3cc(ccc31)-c1csc(n1)C[C@H](NC(=O)[C@H]1[C@H](C)[C@@H]1C)C(=O)N1CCC[C@H](N1)C(=O)OCC(C)(C)C2 (atropisomer, axis not shown; (Ra)) [Compound Z485, (1r,2R,3S)—N-((6^3S,4S,Z)—(Ra)-1^2-(5-(2-(1,1-dioxidothiomorpholino)ethyl)-2-((S)-1-methoxyethyl)pyridin-3-yl)-11-ethyl-10,10-dimethyl-5,7-dioxo-6^1,6^2,6^3,6^4,6^5,6^6-hexahydro-1^1H-8-oxa-2(4,2)-thiazola-1(5,3)-indola-6(1,3)-pyridazinacycloundecaphane-4-yl)-2,3-dimethylcyclopropane-1-carboxamide] |  |  |  |
|  |  |  |  | 0.89 nM | 0.31 nM | 0.22 nM | 0.6 nM | CO[C@@H](C)c1ncc(OCCN2CCS(=O)(=O)CC2)cc1-c1c2c3cc(ccc3n1C(C)C)-c1csc(n1)C[C@H](NC(=O)[C@H]1C[C@@H]1C)C(=O)N1CCC[C@H](N1)C(=O)OCC(C)(C)C2 (atropisomer, axis not shown; (Ra)) [Compound Z603, (1S,2S)—N-((6^3S,4S,Z)—(Ra)-1^2-(5-(2-(1,l-dioxidothiomorpholino)ethoxy)2-((S)-1-methoxyethyl)pyridin-3-yl)-1^1-isopropyl-10,10-dimethyl-5,7-dioxo-6^1,6^2,6^3,6^4,6^5,6^6-hexahydro-1^1H-8-oxa-2(4,2)-thiazola-1(5,3)-indola-6(1,3)-pyridazinacycloundecaphane-4-yl)-2-methylcyclopropane-1-carboxamide] |  |  |  |
|  |  |  |  | 6.34 nM | 3.86 nM | 1.77 nM | 3.89 nM | CCn1c(-c2cc(C#CCN3CCCOCC3)cnc2[C@H](C)OC)c2c3cc(ccc31)-c1csc(n1)C[C@H](NC(=O)C(F)(F)C1CC1)C(=O)N1CCC[C@H](N1)C(=O)OCC(C)(C)C2 (atropisomer, axis not shown; (Ra)) [Compound Z927] |  |  |  |
|  |  |  |  | 1.37 nM | 0.93 nM | 0.9 nM | 0.89 nM | CCn1c(-c2cc(OC[C@@H]3CCCN3Cc3ccn(C)n3)cnc2[C@H](C)OC)c2c3cc(ccc31)-c1csc(n1)C[C@H](NC(=O)[C@H]1[C@H](C)[C@@H]1C)C(=O)N1CCC[C@H](N1)C(=O)OCC(C)(C)C2 (atropisomer, axis not shown; (Ra)) [Compound Z784-1, (1r,2R,3S)—N-((6^3S,4S,Z)—(Ra)-1^2-5-(((S)-1-((1-methyl-1H-pyrazol-3-yl)methyl)pyrrolidin-2-yl)methoxy)-(2-((S)-1-methoxyethyl)-pyridin-3-yl)-10,10-dimethyl-5,7-dioxo-6^1,6^2,6^3,6^4,6^5,6^6-hexahydro-1^1H-8-oxa-2(4,2)-thiazola-1(5,3)-indola-6(1.3)-pyridazinacycloundecaphane-4-yl)-2,3-dimethylcyclopropane-1-carboxamide] |  |  |  |
|  |  |  |  | 28.3 nM | 7.54 nM | 9.86 nM | 18.7 nM | CCn1c(-c2cc([C@H]3CCN4CCOC[C@H]4C3)cnc2[C@H](C)OC)c2c3cc(ccc31)-c1csc(n1)C[C@H](NC(=O)[C@H]1[C@H](C)[C@@H]1C)C(=O)N1CCC[C@H](N1)C(=O)OCC1(CC1)C2 (single isomer, unassigned) [Compound Z78] |  |  |  |
| 0.36 nM | 0.51 nM |  |  | 0.66 nM |  |  | 0.51 nM | CCn1c(-c2cc(OCCN3CC[S+]([O-])CC3)cnc2[C@H](C)OC)c2c3cc(ccc31)-c1csc(n1)C[C@H](NC(=O)[C@H]1[C@H](C)[C@@H]1C)C(=O)N1CCC[C@H](N1)C(=O)OCC(C)(C)C2 (atropisomer, axis not shown; (Ra)) [Compound Z600] |  |  |  |

| Compound | IC50 (NCI-H441 cells; [4]) | IC50 [1, 5] | IC50 [2, 6] | IC50 [3, 4] | IC50 [3, 7] | IC50 (NCI-H441 cells; [8]) | IC50 [1, 9] | IC50 [2, 10] | IC50 (NCI-H441 cells; Homo sapiens, 3D cell proliferation (CellTiter Glo-3D)) | IC50 ([1]; Homo sapiens, NCI-H441, 3 h, read-out: H441 p-ERK IC50(nM)) | IC50 ([2]; Homo sapiens, ASPC1, 3 h, read-out: AsPC-1 p-ERK IC50(nM)) |
| --- | --- | --- | --- | --- | --- | --- | --- | --- | --- | --- | --- |
| CCn1c(-c2cc(C#CCN3CCC(C#N)(c4cccc[n+]4[O-])CC3)cnc2[C@H](C)OC)c2c3cc(ccc31)-c1csc(n1)C[C@H](NC(=O)[C@H]1[C@H](C)[C@@H]1C)C(=O)N1CCC[C@H](N1)C(=O)OCC(C)(C)C2 [Compound Z1054, 2-(4-cyano-1-(3-(5-((6^3S,4S,Z)-4-((2R,3S)-2 3-dimethylcyclopropane-1-carboxamido)-1^1-ethyl-10,10-dimethyl-5,7-dioxo-6^1,6^2,6^3,6^4,6^5,6^6-hexahydro-1^1H-8-oxa-2(4.2)-thiazola-1(5,3)-indola-6(1,3)-pyridazinacycloundecaphane-12-yl)-6-((S)-1-methoxyethyl)pyridin-3-yl)prop-2-yn-1-yl)piperidin-4-yl)pyridine 1-oxide formate] |  |  |  |  | 0.08 nM |  |  |  | 0.15 nM | 0.25 nM | 0.16 nM |
